Laboratory results reported in patent US20200017549A1, “NOVEL a4B7 PEPTIDE ANTAGONISTS” (Protagonist Therapeutics, Inc., priority 2013, published 2020).
Bridge positions count the residues as written; N and C are the ends. Square brackets hold non-standard residues; d marks the D form. Peptide text beside a SMILES is read from it. NMeR = CN[C@@H](CCCNC(=N)N)C(=O)O; Pen = CC(C)(S)[C@H](N)C(=O)O

Assay: Simulated Intestinal Fluid (SIF) Stability Assay
Format: in vitro ADME
Settings: for stability in simulated intestinal fluids (SIF): Cys substituted with Pen, compared to SEQ ID NO: 46 with Cys
Protocol: Simulated Intestinal Fluid (SIF) Stability Assay
Studies were carried out in simulated intestinal fluid (SIF) to evaluate gastric stability of the peptide molecules of the instant invention. SIF was prepared by adding 6.8 g of monobasic potassium phosphate and 10.0 g of pancreatin to 1.0 L of water. After dissolution, the pH was adjusted to 6.8 using NaOH. DMSO stocks (2 mM) were first prepared for the test compounds. Aliquots of the DMSO solutions were dosed into 6 individual tubes, each containing 0.5 mL of SIF, which had been pre-warmed to 37° C.
The final test compound concentration was 20 μM. The vials were kept in a benchtop Thermomixer® for the duration of the experiment. At each time point (0, 5, 10, 20, 40, and 60 minutes), 1.0 mL of acetonitrile containing 1% formic acid was added to one vial to terminate the reaction. Samples were stored at 4° C. until the end of the experiment. After the final timepoint was sampled, the tubes were mixed and then centrifuged at 3,000 rpm for 10 minutes. Aliquots of the supernatant were removed, diluted 1:1 into distilled water containing internal standard, and analyzed by LCMS/MS. Percent remaining at each time point was calculated based on the peak area response ratio of test to compound to internal standard. Time 0 was set to 100%, and all later time points were calculated relative to time 0. Half-lives were calculated by fitting to a first-order exponential decay equation using GraphPad. A small sampling of the results of these studies is provided and discussed in connection FIG. 3, above.

Row | stability in simulated intestinal fluids (SIF) | half-life in SIF (simulated intestinal fluid, pH 6.8, 37° C., N-Me-Arg substituted versus non-methylated variation) | SMILES
1 | increased stability significantly | – | CC(=O)N[C@H]1CSSC(C)(C)[C@@H](C(=O)N[C@H](CCCCN)C(N)=O)NC(=O)[C@H](CC(C)C)NC(=O)[C@H]([C@@H](C)O)NC(=O)[C@H](CC(=O)O)NC(=O)[C@H](CO)NC(=O)[C@H](CCCNC(=N)N)N(C)C1=O [SEQ ID NO: 55] (Ac-C[NMeR]SDTL[Pen][dK]-NH2; disulfide 1-7)
2 | increased stability significantly | – | CC(=O)N[C@@H]1C(=O)N(C)[C@@H](CCCNC(=N)N)C(=O)N[C@@H](CO)C(=O)N[C@@H](CC(=O)O)C(=O)N[C@@H]([C@@H](C)O)C(=O)N[C@@H](CC(C)C)C(=O)N[C@H](C(=O)N[C@H](CCCCN)C(N)=O)C(C)(C)SSC1(C)C [SEQ ID NO: 93] (Ac-[Pen][NMeR]SDTL[Pen][dK]-NH2; disulfide 1-7)
3 | increased stability significantly | – | CC(=O)N[C@H]1CSSC(C)(C)[C@@H](C(=O)N[C@@H](CCC(=O)O)C(=O)N[C@H](CCCCN)C(N)=O)NC(=O)[C@H](CC(C)C)NC(=O)[C@H]([C@@H](C)O)NC(=O)[C@H](CC(=O)O)NC(=O)[C@H](CO)NC(=O)[C@H](CCCNC(=N)N)N(C)C1=O [SEQ ID NO: 74] (Ac-C[NMeR]SDTL[Pen]E[dK]-NH2; disulfide 1-7)
4 | – | increased half-life substantially | CC(=O)N[C@H]1CSSC[C@@H](C(N)=O)NC(=O)[C@H](CC(C)C)NC(=O)[C@H]([C@@H](C)O)NC(=O)[C@H](CC(=O)O)NC(=O)[C@H](CO)NC(=O)[C@H](CCCNC(=N)N)N(C)C1=O [SEQ ID NO: 46] (Ac-C[NMeR]SDTLC-NH2; disulfide 1-7)
